The text below walks through data of US10294234B2, “HIV inhibitor compounds” (priority 2017, dated 2019).

Read-outs that look alike come from different tables or passages of the source. A value given as a limit tells only on which side of the number the result lay.

Data set [1] has as its system HIV-1 (IIIB) in MT-4 cells. As to the kind of experiment: MT-4 HIV assay. In kind it is cell-based. The conditions noted are these: Human immunodeficiency virus 1, MT4, 120 h. The method in brief:
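Antiviral activity was read by Cell Titer Glo after a 5-day, 37 °C culture of MT-4 cells pre-infected with a 1:250 dilution of HIV-1 (IIIB). Compounds were tested as threefold dilution series in complete RPMI. Controls were no drug, mock infection and 5 uM AZT.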

How the values of data set [2] were obtained:
Liver Microsomal Stability Protocol
Test compounds and one control compound (verapamil) were tested in 3 different species in duplicate sets.
Test compound concentration: 1 uM; Protein concentration: 0.5 mg/mL (for dog, rat, and human liver microsomes); Cofactor: NADPH-Regenerating system (NRS) solution; Time-points: 2, 12, 25, 45, and 65 minutes.
Reaction composition (in each incubation well) contains:
After plates were vortexed, they were centrifuged for 30 minutes to remove proteins. About 100 μL supernatant was removed to a new plate and diluted with 150 μL water. About 20 μL of the mixture was injected into LC/MS/MS system to monitor the compound's response. In vitro measured t1/2 was used to calculate Clint values.

Where [3] appears, read: HIV-1 (IIIB), MT-4 cells, 5 days, Cell Titer Glo, read-out: EC50.
Where [4] appears, read: human liver microsomes 0.5 mg/mL, 1 uM compound, NADPH.
Setting [5] is: rat liver microsomes 0.5 mg/mL, 1 uM compound, NADPH.

As to `COC(=O)N[C@H](C(=O)NN(Cc1c(F)cc(-c2ccn(CC(F)F)n2)cc1F)C[C@H](O)[C@H](Cc1ccc(C#Cc2cnc(N3CC4CCC(C3)N4C3COC3)nc2)cc1)NC(=O)[C@@H](NC(=O)OC)C(C)(C)C(F)(F)F)C(C)(C)C` [Example 7, methyl ((5S,8S,9S,14S)-11-(4-(1-(2,2-difluoroethyl)-1H-pyrazol-3-yl)-2,6-difluorobenzyl)-9-hydroxy-15,15-dimethyl-8-(4-((2-(8-(oxetan-3-yl)-3,8-diazabicyclo[3.2.1]octan-3-yl)pyrimidin-5-yl)ethynyl)benzyl)-3,6,13-trioxo-5-(1,1,1-trifluoro-2-methylpropan-2-yl)-2-oxa-4,7,11,12-tetraazahexadecan-14-yl)carbamate], the EC50 in data set [1] (setting [3]) was 3.61 nM. The “Human Pred Cl.” value in data set [2] (human, microsomes) is under 0.11 L/H/kg. The “Rat. Pred. Cl.” value in data set [2] (rat, microsomes) turned out to be 0.21 L/H/kg.
For the compound `COC(=O)N[C@H](C(=O)N[C@@H](Cc1ccc(C#Cc2ccc(N3CC4CCC(C3)N4C3COC3)nc2)cc1)[C@@H](O)CN(Cc1c(F)cc(C2CCOCC2)cc1F)NC(=O)[C@@H](NC(=O)OC)C(C)(C)C(F)(F)F)C(C)(C)C(F)(F)F` [Example 82, Methyl ((5S,8S,9S,14S)-11-(2,6-difluoro-4-(tetrahydro-2H-pyran-4-yl)benzyl)-16,16,16-trifluoro-9-hydroxy-15,15-dimethyl-8-(4-((6-(8-(oxetan-3-yl)-3,8-diazabicyclo[3.2.1]octan-3-yl)pyridin-3-yl)ethynyl)benzyl)-3,6,13-trioxo-5-(1,1,1-trifluoro-2-methylpropan-2-yl)-2-oxa-4,7,11,12-tetraazahexadecan-14-yl)carbamate], the EC50 in data set [1] (setting [3]) stood at 4.4 nM. In data set [2] (human, microsomes), the “Human Pred Cl.” value came to 0.82 L/H/kg. In data set [2] (rat, microsomes), the “Rat. Pred. Cl.” value is listed as 0.44 L/H/kg.
In the same order, the values of `COC(=O)N[C@H](C(=O)N[C@@H](Cc1ccc(C#Cc2ccc(N3CC4CCC(C3)N4C3COC3)nc2)cc1)[C@@H](O)CN(Cc1c(F)cc(-c2ccn(CC(C)(C)O)n2)cc1F)NC(=O)[C@@H](NC(=O)OC)C(C)(C)C(F)(F)F)C(C)(C)C(F)(F)F` [Example 16, Methyl ((5S,8S,9S,14S)-11-(2,6-difluoro-4-(1-(2-hydroxy-2-methylpropyl)-1H-pyrazol-3-yl)benzyl)-16,16,16-trifluoro-9-hydroxy-15,15-dimethyl-8-(4-((6-(8-(oxetan-3-yl)-3,8-diazabicyclo[3.2.1]octan-3-yl)pyridin-3-yl)ethynyl)benzyl)-3,6,13-trioxo-5-(1,1,1-trifluoro-2-methylpropan-2-yl)-2-oxa-4,7,11,12-tetraazahexadecan-14-yl)carbamate] are 4.64 nM, under 0.11 L/H/kg and 0.45 L/H/kg.
Consider `COC(=O)N[C@H](C(=O)NNC[C@H](O)[C@H](Cc1ccc(C#Cc2cnc(N3CC4CCC(C3)N4C3COC3)nc2)cc1)NC(=O)[C@@H](NC(=O)OCCc1c(F)cc(-c2cn(C34CC(C3)C4)nn2)cc1F)C(C)(C)C(F)(F)F)C(C)(C)C(F)(F)F` [Example 131, Methyl ((5S,8S,9S,14S)-1-(4-(1-(bicyclo[1.1.1]pentan-1-yl)-1H-1,2,3-triazol-4-yl)-2,6-difluorobenzyl)-16,16,16-trifluoro-9-hydroxy-15,15-dimethyl-8-(4-((2-(8-(oxetan-3-yl)-3,8-diazabicyclo[3.2.1]octan-3-yl)pyrimidin-5-yl)ethynyl)benzyl)-3,6,13-trioxo-5-(1,1,1-trifluoro-2-methylpropan-2-yl)-2-oxa-4,7,11,12-tetraazahexadecan-14-yl)carbamate], for which, in data set [1] (setting [3]), the EC50 was determined as 5.24 nM. Moreover, in data set [2] (human, microsomes), the “Human Pred Cl.” value is listed as under 0.11 L/H/kg.
With `COC(=O)N[C@H](C(=O)NN(Cc1c(F)cc(-c2ccn(C(F)F)n2)cc1F)C[C@H](O)[C@H](Cc1ccc(C#Cc2ccc(N3CC4CCC(C3)N4S(C)(=O)=O)nc2)cc1)NC(=O)[C@@H](NC(=O)OC)C(C)(C)C(F)(F)F)C(C)(C)C` [Example 72, Methyl ((5S,8S,9S,14S)-11-(4-(1-(difluoromethyl)-1H-pyrazol-3-yl)-2,6-difluorobenzyl)-9-hydroxy-15,15-dimethyl-8-(4-((6-(8-(methylsulfonyl)-3,8-diazabicyclo[3.2.1]octan-3-yl)pyridin-3-yl)ethynyl)benzyl)-3,6,13-trioxo-5-(1,1,1-trifluoro-2-methylpropan-2-yl)-2-oxa-4,7,11,12-tetraazahexadecan-14-yl)carbamate], the EC50 in data set [1] (setting [3]) amounted to 5.19 nM. In data set [2] (human, microsomes), the “Human Pred Cl.” value is listed as 0.14 L/H/kg. Moreover, the “Rat. Pred. Cl.” value in data set [2] (rat, microsomes) is given as under 0.18 L/H/kg.
On to `COC(=O)N[C@H](C(=O)N[C@@H](Cc1ccc(C#Cc2cnc(N3CC4CCC(C3)N4C3COC3)nc2)cc1)[C@@H](O)CN(Cc1c(F)cc(-c2cn(C(F)F)nn2)cc1F)NC(=O)[C@@H](NC(=O)OC)C(C)(C)C(F)(F)F)C(C)(C)C(F)(F)F` [Example 219, Methyl ((5S,8S,9S,14S)-11-(4-(1-(difluoromethyl)-1H-1,2,3-triazol-4-yl)-2,6-difluorobenzyl)-16,16,16-trifluoro-9-hydroxy-15,15-dimethyl-8-(4-((2-(8-(oxetan-3-yl)-3,8-diazabicyclo[3.2.1]octan-3-yl)pyrimidin-5-yl)ethynyl)benzyl)-3,6,13-trioxo-5-(1,1,1-trifluoro-2-methylpropan-2-yl)-2-oxa-4,7,11,12-tetraazahexadecan-14-yl)carbamate], for which the EC50 in data set [1] (setting [3]) came out at 4.1 nM. Also, the “Dog. Pred. Cl.” value in data set [2] (dog, microsomes) was found to be 0.19 L/H/kg. For the same compound, the “Human Pred Cl.” value in data set [2] (human, microsomes) is recorded as under 0.11 L/H/kg. Besides, in data set [2] (rat, microsomes), the “Rat. Pred. Cl.” value is recorded as 0.24 L/H/kg.
In the case of `COC(=O)N[C@H](C(=O)N[C@@H](Cc1ccc(C#Cc2ccc(N3CC4CCC(C3)[N+]4(C)C3COC3)nc2)cc1)[C@@H](O)CN(Cc1c(F)cc(-c2ccn(C(F)F)n2)cc1F)NC(=O)[C@@H](NC(=O)OC)C(C)(C)C(F)(F)F)C(C)(C)C(F)(F)F` (stereo partly drawn) [Example 48, 3-(5-((4-((2S,3S)-4-(1-(4-(1-(difluoromethyl)-1H-pyrazol-3-yl)-2,6-difluorobenzyl)-2-((S)-4,4,4-trifluoro-2-((methoxycarbonyl)amino)-3,3-dimethylbutanoyl)hydrazinyl)-3-hydroxy-2-((S)-4,4,4-trifluoro-2-((methoxycarbonyl)amino)-3,3-dimethylbutanamido)butyl)phenyl)ethynyl)pyridin-2-yl)-8-methyl-8-(oxetan-3-yl)-3,8-diazabicyclo[3.2.1]octan-8-ium], the EC50 in data set [1] (setting [3]) is 114 nM. For the same compound, the “Human Pred Cl.” value in data set [2] (human, microsomes) is on record as under 0.11 L/H/kg. Also, the “Rat. Pred. Cl.” value in data set [2] (rat, microsomes) stood at 0.18 L/H/kg.
In the case of `COC(=O)N[C@H](C(=O)N[C@@H](Cc1ccc(C#Cc2ccc(N3C[C@H]4C[C@@H]3CN4C3COC3)nc2)cc1)[C@@H](O)CN(Cc1c(F)cc(-c2cc(F)ccn2)cc1F)NC(=O)[C@@H](NC(=O)OC)C(C)(C)C(F)(F)F)C(C)(C)C(F)(F)F` [Example 138, Methyl ((5S,8S,9S,14S)-11-(2,6-difluoro-4-(4-fluoropyridin-2-yl)benzyl)-16,16,16-trifluoro-9-hydroxy-15,15-dimethyl-8-(4-((6-((1R,4R)-5-(oxetan-3-yl)-2,5-diazabicyclo[2.2.1]heptan-2-yl)pyridin-3-yl)ethynyl)benzyl)-3,6,13-trioxo-5-(1,1,1-trifluoro-2-methylpropan-2-yl)-2-oxa-4,7,11,12-tetraazahexadecan-14-yl)carbamate], in data set [1] (setting [3]), the EC50 is 2.32 nM. Further, the “Human Pred Cl.” value in data set [2] (setting [4]) amounted to 0.17 L/H/kg. Besides, the “Rat. Pred. Cl.” value in data set [2] (setting [5]) was 0.95 L/H/kg.
Regarding `COC(=O)N[C@H](C(=O)N[C@@H](Cc1ccc(C#Cc2ccc(N3CC4CCC(C3)N4C3COC3)nc2)cc1)[C@@H](O)CN(Cc1c(F)cc(-c2ccc(C)cn2)cc1F)NC(=O)[C@@H](NC(=O)OC)C(C)(C)C(F)(F)F)C(C)(C)C(F)(F)F` [Example 229, Methyl ((5S,8S,9S,14S)-11-(2,6-difluoro-4-(5-methylpyridin-2-yl)benzyl)-16,16,16-trifluoro-9-hydroxy-15,15-dimethyl-8-(4-((6-(8-(oxetan-3-yl)-3,8-diazabicyclo [3.2.1]octan-3-yl)pyridin-3-yl)ethynyl)benzyl)-3,6,13-trioxo-5-(1,1,1-trifluoro-2-methylpropan-2-yl)-2-oxa-4,7,11,12-tetraazahexadecan-14-yl)carbamate], the EC50 in data set [1] (setting [3]) stood at 7.86 nM. Further, the “Human Pred Cl.” value in data set [2] (human, microsomes) is reported as under 0.11 L/H/kg. Further, in data set [2] (rat, microsomes), the “Rat. Pred. Cl.” value was found to be 0.26 L/H/kg.
For the compound `COC(=O)N[C@H](C(=O)N[C@@H](Cc1ccc(C#Cc2ccc(N3C[C@@H]4C[C@H]3CN4C3COC3)nc2)cc1)[C@@H](O)CN(Cc1c(F)cc(-c2ccn(C3CC3)n2)cc1F)NC(=O)[C@@H](NC(=O)OC)C(C)(C)C(F)(F)F)C(C)(C)C(F)(F)F` [Example 39, Methyl ((5S,8S,9S,14S)-11-(4-(1-cyclopropyl-1H-pyrazol-3-yl)-2,6-difluorobenzyl)-16,16,16-trifluoro-9-hydroxy-15,15-dimethyl-8-(4-((6-((1S,4S)-5-(oxetan-3-yl)-2,5-diazabicyclo[2.2.]heptan-2-yl)pyridin-3-yl)ethynyl)benzyl)-3,6,13-trioxo-5-(1,1,1-trifluoro-2-methylpropan-2-yl)-2-oxa-4,7,11,12-tetraazahexadecan-14-yl)carbamate], it took 2.57 nM to reach a half-maximal effect in data set [1] (EC50). For the same compound, the “Human Pred Cl.” value in data set [2] (setting [4]) was 0.15 L/H/kg. Moreover, the “Rat. Pred. Cl.” value in data set [2] (setting [5]) is 0.54 L/H/kg.
